Patent publication US20250368649A1, “TETRAHYDROPYRIDOPYRIMIDINE PAN-KRAS INHIBITORS” (Mirati Therapeutics, Inc., priority 2022, published 2025)

Legend:
[1] = molecular target: KRas G12V (Homo sapiens, UniProt P01116, G12V); assay: biochemical; details: Binding to KRas (IC50 nM) G12V, TR-FRET displacement, KRas G12V
[2] = molecular target: KRas G12S (Homo sapiens, UniProt P01116, G12S); type: binding; details: TR-FRET displacement, read-out: Binding to KRas (IC50 nM) G12S
[3] = molecular target: KRas G12C (Homo sapiens, UniProt P01116, G12C); type: binding; details: TR-FRET displacement, read-out: Binding to KRas (IC50 nM) G12C
[4] = molecular target: KRas Q61H (Homo sapiens, UniProt P01116, Q61H); assay: KRas binding assay (TR-FRET displacement), KRas Q61H; details: TR-FRET displacement
[5] = molecular target: KRas G12D (Homo sapiens, UniProt P01116, G12D); assay: biochemical; details: Binding to KRas (IC50 nM) G12D, TR-FRET displacement, KRas G12D
[6] = molecular target: KRas G12A (Homo sapiens, UniProt P01116, G12A); type: binding; details: TR-FRET displacement, read-out: Binding to KRas (IC50 nM) G12A
[7] = molecular target: KRas G13D (Homo sapiens, UniProt P01116, G13D); type: binding; details: TR-FRET displacement, read-out: Binding to KRas (IC50 nM) G13D
[8] = molecular target: KRas WT (Homo sapiens, UniProt P01116); assay: KRas binding assay (TR-FRET displacement), KRas WT; details: TR-FRET displacement
Chain of KRas WT (P01116 1-169 isoform P01116-2): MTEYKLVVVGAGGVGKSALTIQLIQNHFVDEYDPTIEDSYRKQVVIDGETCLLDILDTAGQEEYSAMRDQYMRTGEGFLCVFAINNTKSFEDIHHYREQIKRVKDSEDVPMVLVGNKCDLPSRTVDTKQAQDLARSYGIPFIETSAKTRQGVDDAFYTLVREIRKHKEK

Chain of KRas G12S (P01116 1-169 isoform P01116-2 G12S): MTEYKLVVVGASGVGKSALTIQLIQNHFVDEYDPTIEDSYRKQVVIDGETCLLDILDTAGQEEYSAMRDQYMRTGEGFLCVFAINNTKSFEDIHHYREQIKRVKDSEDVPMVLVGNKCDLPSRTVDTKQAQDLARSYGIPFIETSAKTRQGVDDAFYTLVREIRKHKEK
Chain of KRas Q61H (P01116 1-169 isoform P01116-2 Q61H): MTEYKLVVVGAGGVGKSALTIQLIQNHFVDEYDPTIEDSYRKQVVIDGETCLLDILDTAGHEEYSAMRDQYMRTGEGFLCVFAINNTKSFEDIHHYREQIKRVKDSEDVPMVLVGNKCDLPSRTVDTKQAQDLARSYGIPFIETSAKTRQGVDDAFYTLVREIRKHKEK
Chain of KRas G12V (P01116 1-169 isoform P01116-2 G12V): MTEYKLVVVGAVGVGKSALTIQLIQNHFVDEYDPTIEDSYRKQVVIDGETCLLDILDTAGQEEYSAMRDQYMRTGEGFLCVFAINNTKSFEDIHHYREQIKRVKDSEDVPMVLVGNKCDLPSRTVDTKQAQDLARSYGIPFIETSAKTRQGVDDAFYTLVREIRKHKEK
Chain of KRas G12A (P01116 1-169 isoform P01116-2 G12A): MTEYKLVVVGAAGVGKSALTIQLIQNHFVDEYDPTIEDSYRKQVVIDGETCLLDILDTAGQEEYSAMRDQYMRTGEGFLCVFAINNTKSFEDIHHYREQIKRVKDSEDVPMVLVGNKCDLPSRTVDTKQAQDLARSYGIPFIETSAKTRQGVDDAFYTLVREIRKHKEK
Chain of KRas G12D (P01116 1-169 isoform P01116-2 G12D): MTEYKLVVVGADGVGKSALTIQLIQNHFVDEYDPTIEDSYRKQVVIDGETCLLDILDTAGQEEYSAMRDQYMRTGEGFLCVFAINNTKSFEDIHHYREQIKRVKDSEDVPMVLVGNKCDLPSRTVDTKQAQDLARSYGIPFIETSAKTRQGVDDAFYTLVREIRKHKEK
Chain of KRas G13D (P01116 1-169 isoform P01116-2 G13D): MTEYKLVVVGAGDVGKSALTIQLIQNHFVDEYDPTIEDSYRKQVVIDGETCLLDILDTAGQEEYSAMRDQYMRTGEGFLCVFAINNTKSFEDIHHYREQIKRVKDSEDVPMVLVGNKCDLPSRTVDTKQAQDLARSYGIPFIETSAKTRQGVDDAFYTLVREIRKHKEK
Chain of KRas G12C (P01116 1-169 isoform P01116-2 G12C): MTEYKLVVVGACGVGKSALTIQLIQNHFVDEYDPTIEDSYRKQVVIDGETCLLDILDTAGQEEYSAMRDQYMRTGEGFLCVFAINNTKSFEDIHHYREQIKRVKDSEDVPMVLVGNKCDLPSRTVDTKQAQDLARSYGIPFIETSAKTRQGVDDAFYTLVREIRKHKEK

Structure (SMILES) | IC50 [1] [nM] | IC50 [2] [nM] | IC50 [3] [nM] | IC50 [4] [nM] | IC50 [5] [nM] | IC50 [6] [nM] | IC50 [7] [nM] | IC50 [8] [nM]
CCc1cccc2cccc(N3CCc4c(nc(OCC5(CN(C)C)CC5)nc4N4CCn5nncc5C4)C3)c12 [Example 665, 1-(1-(((4-(6,7-dihydro-[1,2,3]triazolo[1,5-a]pyrazin-5(4H)-yl)-7-(8-ethylnaphthalen-1-yl)-5,6,7,8-tetrahydropyrido[3,4-d]pyrimidin-2-yl)oxy)methyl)cyclopropyl)-N,N-dimethylmethanamine] | 10800 | 62800 | 37800 | > 100000 | 6840 | 83100 | > 100000 | 87600
CCc1cccc2cccc(N3CCc4c(nc(OCC5(CN(C)C)CC5)nc4NCCc4sc(N)nc4C)C3)c12 [Example 670, 5-(2-((2-((1-((dimethylamino)methyl)cyclopropyl)methoxy)-7-(8-ethylnaphthalen-1-yl)-5,6,7,8-tetrahydropyrido[3,4-d]pyrimidin-4-yl)amino)ethyl)-4-methylthiazol-2-amine] | 1540 | 1980 | 602 | 2030 | 9750 | 1880 | 1970 | 1960
CCc1cccc2cccc(N3CCc4c(nc(OCC5(CN(C)C)CC5)nc4NCCc4nnc(N)o4)C3)c12 [Example 671, 5-(2-((2-((1-((dimethylamino)methyl)cyclopropyl)methoxy)-7-(8-ethylnaphthalen-1-yl)-5,6,7,8-tetrahydropyrido[3,4-d]pyrimidin-4-yl)amino)ethyl)-1,3,4-oxadiazol-2-amine] | 1980 | 16500 | 5240 | 30200 | 11800 | 10200 | 33000 | 23900
CCc1cccc2cccc(N3CCc4c(nc(OCC5(CN(C)C)CC5)nc4NC4CN(c5nncs5)C4)C3)c12 [Example 674, N-(1-(1,3,4-thiadiazol-2-yl)azetidin-3-yl)-2-((1-((dimethylamino)methyl)cyclopropyl)methoxy)-7-(8-ethylnaphthalen-1-yl)-5,6,7,8-tetrahydropyrido[3,4-d]pyrimidin-4-amine] | 1250 | 3700 | 2030 | 3960 | 1410 | 3970 | 4050 | 3490
CCc1cccc2cccc(N3CCc4c(nc(OCC5(CN(C)C)CC5)nc4NCc4nc(C5CC5)n[nH]4)C3)c12 [Example 675, N-((3-cyclopropyl-1H-1,2,4-triazol-5-yl)methyl)-2-((1-((dimethylamino)methyl)cyclopropyl)methoxy)-7-(8-ethylnaphthalen-1-yl)-5,6,7,8-tetrahydropyrido[3,4-d]pyrimidin-4-amine] | 3240 | 16600 | 8480 | 25300 | 6300 | 17300 | 15300 | 16900
CCc1cccc2cccc(N3CCc4c(nc(OCC5(CN(C)C)CC5)nc4NC4CN(C(=O)NC)C4)C3)c12 [Example 676, 3-((2-((1-((dimethylamino)methyl)cyclopropyl)methoxy)-7-(8-ethylnaphthalen-1-yl)-5,6,7,8-tetrahydropyrido[3,4-d]pyrimidin-4-yl)amino)-N-methylazetidine-1-carboxamide] | 1910 | 7090 | 3410 | 6700 | 4290 | 6300 | 6220 | 5010
CCc1cccc2cccc(N3CCc4c(nc(OCC5(CN(C)C)CC5)nc4NCc4cnc(C)nc4N)C3)c12 [Example 677, N-((4-amino-2-methylpyrimidin-5-yl)methyl)-2-((1-((dimethylamino)methyl)cyclopropyl)methoxy)-7-(8-ethylnaphthalen-1-yl)-5,6,7,8-tetrahydropyrido[3,4-d]pyrimidin-4-amine] | 4410 | 13600 | 6330 | 14100 | 2330 | 9110 | 13900 | 11000
